The subject of this assay is P388 leukemia ip, CD2F1 mice, survival T/C. The experiment in a line: NCI In Vivo Anticancer Drug Screen. Data for tumor model P388 Leukemia (intraperitoneal) in CD2F1 (CDF1) mice. As to conditions: endpoint: median survival time, higher = longer survival. A digest of the protocol:
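Mice carrying the transplanted tumor received test compound or vehicle. Survival was recorded in each group, and the value is the treated-group measurement divided by that of the vehicle-treated control group.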

The mark [1] stands for this setting: dose: 25.0 mg/kg/injection, schedule: Q01DX001 (ip), vehicle: saline.
[2] abbreviates: dose: 50.0 mg/kg/injection, schedule: Q01DX001 (ip), vehicle: saline.
Setting [3] is: dose: 100.0 mg/kg/injection, schedule: Q01DX001 (ip), vehicle: saline.
[4] abbreviates: dose: 50.0 mg/kg/injection, schedule: Q01DX009 (ip), vehicle: Klucel (hydroxypropylcellulose) (HPC).
The mark [5] stands for this setting: dose: 100.0 mg/kg/injection, schedule: Q01DX009 (ip), vehicle: Klucel (hydroxypropylcellulose) (HPC).
The mark [6] stands for this setting: dose: 200.0 mg/kg/injection, schedule: Q01DX009 (ip), vehicle: Klucel (hydroxypropylcellulose) (HPC).
The mark [7] stands for this setting: dose: 60.0 mg/kg/injection, schedule: Q01DX005 (ip), vehicle: Klucel (hydroxypropylcellulose) (HPC).
Setting [8] is: dose: 120.0 mg/kg/injection, schedule: Q01DX005 (ip), vehicle: Klucel (hydroxypropylcellulose) (HPC).
Where [9] appears, read: dose: 240.0 mg/kg/injection, schedule: Q01DX005 (ip), vehicle: Klucel (hydroxypropylcellulose) (HPC).
[10] abbreviates: dose: 50.0 mg/kg/injection, schedule: Q01DX005 (ip), vehicle: saline with Tween-80.
The mark [11] stands for this setting: dose: 100.0 mg/kg/injection, schedule: Q01DX005 (ip), vehicle: saline with Tween-80.
[12] abbreviates: dose: 50.0 mg/kg/injection, schedule: Q01DX009 (ip), vehicle: saline.
The mark [13] stands for this setting: dose: 100.0 mg/kg/injection, schedule: Q01DX009 (ip), vehicle: saline.
Where [14] appears, read: dose: 200.0 mg/kg/injection, schedule: Q01DX009 (ip), vehicle: saline.
Setting [15] is: dose: 50.0 mg/kg/injection, schedule: Q04DX003 (ip), vehicle: saline with Tween-80.
The mark [16] stands for this setting: dose: 100.0 mg/kg/injection, schedule: Q04DX003 (ip), vehicle: saline with Tween-80.
[17] abbreviates: dose: 60.0 mg/kg/injection, schedule: Q01DX005 (ip), vehicle: saline with Tween-80.
Setting [18] is: dose: 120.0 mg/kg/injection, schedule: Q01DX005 (ip), vehicle: saline with Tween-80.
Where [19] appears, read: dose: 240.0 mg/kg/injection, schedule: Q01DX005 (ip), vehicle: saline with Tween-80.
[20] abbreviates: dose: 50.0 mg/kg/injection, schedule: Q01DX005 (ip), vehicle: saline.
Where [21] appears, read: dose: 100.0 mg/kg/injection, schedule: Q01DX005 (ip), vehicle: saline.
Setting [22] is: dose: 200.0 mg/kg/injection, schedule: Q01DX005 (ip), vehicle: saline.
Where [23] appears, read: dose: 50.0 mg/kg/injection, schedule: Q01DX005 (ip), vehicle: Klucel (hydroxypropylcellulose) (HPC).
Where [24] appears, read: dose: 100.0 mg/kg/injection, schedule: Q01DX005 (ip), vehicle: Klucel (hydroxypropylcellulose) (HPC).
The mark [25] stands for this setting: dose: 200.0 mg/kg/injection, schedule: Q01DX005 (ip), vehicle: Klucel (hydroxypropylcellulose) (HPC).

“And” between values parts separate entries of the source, which are not always exact repeats. Equal entries are not always repeated. Toxic doses and inconclusive results are not listed.

On to `Cc1ccc(S(=O)(=O)N/N=C/c2ccc(O)c(S(=O)(=O)O)c2)cc1`, for which the T/C (dose: 12.5 mg/kg/injection, schedule: Q01DX009 (ip), vehicle: water) is 97 % of control; the T/C (dose: 25.0 mg/kg/injection, schedule: Q01DX009 (ip), vehicle: water) is 101 % of control; the T/C (dose: 50.0 mg/kg/injection, schedule: Q01DX009 (ip), vehicle: water) is 101 % of control; the T/C (dose: 100.0 mg/kg/injection, schedule: Q01DX009 (ip), vehicle: water) was 110 % of control; the T/C (dose: 200.0 mg/kg/injection, schedule: Q01DX009 (ip), vehicle: water) was 99 % of control.

With `CC(C)(F)c1nc2cc3ccccc3cc2[nH]c1=O`, the T/C is, setting by setting: (dose: 100.0 mg/kg/injection, schedule: Q01DX001 (ip), vehicle: saline with Tween-80) 98 % of control; (dose: 200.0 mg/kg/injection, schedule: Q01DX001 (ip), vehicle: saline with Tween-80) 90 % of control.

For the compound `O=C(C1CO1)C(Cl)(Cl)Cl` (stereo not given), the T/C (dose: 3.12 mg/kg/injection, schedule: Q01DX001 (ip), vehicle: saline) was 107 % of control; the T/C (dose: 6.25 mg/kg/injection, schedule: Q01DX001 (ip), vehicle: saline) was 107 % of control; the T/C (dose: 12.5 mg/kg/injection, schedule: Q01DX001 (ip), vehicle: saline) was 116 % of control; the T/C under setting [1] is 120 % of control and 122 % of control; the T/C under setting [2] was 113 % of control; the T/C under setting [3] is 111 % of control.

Regarding `Cc1ccc(S(=O)(=O)c2cnc(N)nc2N)cc1`, the T/C by setting is: under setting [3], 98 % of control; (dose: 200.0 mg/kg/injection, schedule: Q01DX001 (ip), vehicle: saline) 95 % of control; (dose: 400.0 mg/kg/injection, schedule: Q01DX001 (ip), vehicle: saline) 95 % of control.

Take `CC1C(c2ccccc2)OCCN1C(N)=S` (stereo not given): the T/C is 108 % of control under setting [4], 101 % of control under setting [5] and 101 % of control under setting [6].

On to `CCCCCCCC(=S)SCCCC(=O)O`, for which the T/C by setting is: under setting [4], 100 % of control; under setting [5], 100 % of control; under setting [6], 99 % of control.

As to `Nc1nc(=O)n(CCCSc2ccc([N+](=O)[O-])cc2)cc1-c1ccc(Cl)c(Cl)c1`, the T/C by setting is: under setting [7], 87 % of control; under setting [8], 97 % of control; under setting [9], 88 % of control.

For the compound `CCOc1cc2c(cc1Cc1ccc3c(c1)OCO3)OCO2`, the T/C reads like this: under setting [10], 97 % of control; under setting [11], 107 % of control; (dose: 200.0 mg/kg/injection, schedule: Q01DX005 (ip), vehicle: saline with Tween-80) 107 % of control.

Turning to `CCOC(=O)c1cnc(NCCCCCCCCNc2ncc(C(=O)OCC)c(=O)[nH]2)[nH]c1=O`, the T/C under setting [12] was 103 % of control; the T/C under setting [13] is 102 % of control; the T/C under setting [14] is 90 % of control and 97 % of control.

Consider `S=c1[nH]nc(-c2ccccc2)n1C1CCCCC1`, for which the T/C is, setting by setting: under setting [15], 97 % of control; under setting [16], 100 % of control; (dose: 200.0 mg/kg/injection, schedule: Q04DX003 (ip), vehicle: saline with Tween-80) 93 % of control.

On to `C=CCN(CC=C)C(=O)Nc1cccc2c(NC(=O)N(CC=C)CC=C)cccc12`, for which the T/C under setting [17] is 93 % of control, the T/C under setting [18] was 97 % of control and the T/C under setting [19] was 97 % of control.

`Cc1cc(=O)oc2cc(OC(=O)N(C)C)ccc12`: the T/C (dose: 100.0 mg/kg/injection, schedule: Q04DX003 (ip), vehicle: saline) was 115 % of control; the T/C (dose: 200.0 mg/kg/injection, schedule: Q04DX003 (ip), vehicle: saline) was 112 % of control; the T/C (dose: 400.0 mg/kg/injection, schedule: Q04DX003 (ip), vehicle: saline) is 97 % of control.

With `Cc1ccc(C(=O)Cc2nc3nnc(N)n3nc2CC(=O)c2ccc(C)cc2)cc1`, the T/C reads like this: under setting [20], 97 % of control; under setting [21], 100 % of control; under setting [22], 97 % of control.

Take `O=CC(C(=O)c1ccccc1[N+](=O)[O-])c1ccccc1` (stereo not given): the T/C is 89 % of control under setting [23], 104 % of control under setting [24] and 98 % of control under setting [25].

As to `CC(=O)OCC(=O)[C@@]1(O)CC[C@H]2[C@@H]3CCC4=CC(=O)C=C[C@]4(C)[C@H]3C(=O)C[C@@]21C`, the T/C (dose: 25.0 mg/kg/injection, schedule: Q04DX003 (ip), vehicle: saline with Tween-80) is 95 % of control; the T/C under setting [15] is 104 % of control; the T/C under setting [16] is 95 % of control.

Take `CCOC([O-])=N/C(C)=N/[n+]1ccccc1`: the T/C by setting is: under setting [12], 104 % of control; under setting [13], 104 % of control; under setting [14], 98 % of control.

As for `C#CC(C)(C)Oc1ccc2c(=O)c(-c3ccc(OC)cc3)coc2c1`, the T/C runs as follows: under setting [10], 94 % of control; under setting [11], 89 % of control.

For `OCCCOCCCO`, the T/C reads like this: under setting [20], 109 % of control; under setting [21], 101 % of control; under setting [22], 114 % of control.

Take `Cc1ncc(C(=O)O)n1Cc1ccccc1`: the T/C under setting [7] was 94 % of control, the T/C under setting [8] is 93 % of control and the T/C under setting [9] was 93 % of control.

Take `COc1ccc(C2c3cc4c(cc3OC(N3CCCC3)C2C)OCO4)c(OC)c1` (stereo not given): the T/C runs as follows: under setting [17], 99 % of control; under setting [18], 99 % of control; under setting [19], 97 % of control.

As for `COC(=O)C1(C)CCCC2(C)c3cc(OC)ccc3C3(CC12)OCCS3` (stereo not given), the T/C was 100 % of control (dose: 2.5 mg/kg/injection, schedule: Q01DX009 (ip), vehicle: saline with Tween-80); 98 % of control (dose: 5.0 mg/kg/injection, schedule: Q01DX009 (ip), vehicle: saline with Tween-80); 92 % of control (dose: 10.0 mg/kg/injection, schedule: Q01DX009 (ip), vehicle: saline with Tween-80).

For `CC1=NN(C(=O)c2ccncc2)C(=O)C1N=Nc1ccc(S(N)(=O)=O)cc1` (stereo not given), the T/C reads like this: (dose: 50.0 mg/kg/injection, schedule: Q01DX009 (ip), vehicle: saline with Tween-80) 94 % of control; (dose: 100.0 mg/kg/injection, schedule: Q01DX009 (ip), vehicle: saline with Tween-80) 95 % of control; (dose: 200.0 mg/kg/injection, schedule: Q01DX009 (ip), vehicle: saline with Tween-80) 92 % of control.

For `CC(C)(C)c1cc(NC(=O)C(F)(F)F)c(Cl)c(C(C)(C)C)c1O`, the T/C runs as follows: under setting [23], 109 % of control; under setting [24], 100 % of control; under setting [25], 108 % of control.

Turning to `COc1ccc2nc3c(=O)[nH]c(=O)nc-3n(CC(O)C(O)C(O)CO)c2c1` (stereo not given), the T/C under setting [1] is 104 % of control; the T/C under setting [2] was 104 % of control; the T/C under setting [3] was 107 % of control; the T/C (dose: 100.0 mg/kg/injection, schedule: Q04DX002 (ip), vehicle: saline) is 109 % of control.

In the case of `COC(=O)C12OCC34C(CC5C(C)=CC(=O)C(O)C5(C)C3C(O)C1O)OC(=O)C(OC(=O)CC(C)C)C24` (stereo not given), the T/C (dose: 0.25 mg/kg/injection, schedule: Q01DX009 (ip), vehicle: saline + alcohol) was 124 % of control; the T/C (dose: 0.5 mg/kg/injection, schedule: Q01DX009 (ip), vehicle: saline + alcohol) was 122 % of control; the T/C (dose: 2.0 mg/kg/injection, schedule: Q01DX009 (ip), vehicle: saline + alcohol) was 163 % of control.

As to `CCOC(=O)COc1ccc(NC(C)=O)cc1`, the T/C is 103 % of control under setting [17], 103 % of control under setting [18] and 95 % of control under setting [19].

For `CC(=O)Oc1cc(C)c(Cl)c2c(OC(C)=O)cc(C(C)=O)c(O)c12`, the T/C is 91 % of control under setting [4], 91 % of control under setting [5] and 90 % of control under setting [6].

Source of the values: PubChem BioAssay AID330 (DTP/NCI, 2004).
